# Tested on: esophagogastric junction adenocarcinoma patient-derived xenograft (PDX)
# Test: Patient-derived xenograft (PDX) of esophagogastric junction adenocarcinoma in NodScid mice supplemented with PBMCs from the same patient (double autologous)
# Assay type: in vivo, NodScid mice (human tumor and PBMCs)
# Conditions: PDX SC in NodScid mice + patient PBMCs; Compound 4 70 mg/kg IV and/or Keytruda 6 mg/kg IP on days 0, 5 and 11; treatment started at ~160 mm^3; sacrificed on day 18
# Description: Patient-derived xenograft (PDX) of esophagogastric junction adenocarcinoma biopsy subcutaneous (SC) implanted into NodScid mice. At the first day of treatment peripheral blood mononuclear cells (PBMCs) from the same patient were intravenous injected to the mice (double autologous).
# Fresh human primary esophagogastric junction adenocarcinoma biopsy was subcutaneously (SC) implanted into NSG mice (P0).
# Subcutaneous implantation of human primary tumor biopsy into NodScid mice.
# The tumor (P3) was extracted from the mice, measured, cut into small pieces of 1-2 mm and transferred into the gentleMACS Tube containing the sterile saline. […] Animals were observed and monitored for any discomfort and immobility day by day.
# Isolation of human PBMCs: Human PBMCs were isolated from heparinized venous blood samples of the same esophagus adenocarcinoma patient by density gradient centrifugation method using Ficol Histopaque (Sigma). […] The total cell number and the number of viable cells were evaluated. […] On the day of injection, the cells were thawed, washed twice in order to dilute possible DMSO residues by the addition of PBS and centrifugation (600 g for 10 minutes, RT) and viable cells were counted. […]
# The length (l) and the width (w) of the tumors were measured 4-5 times a week and the volumes of the tumors were calculated as follows: v=lw^2/2. […]
smiles,measurement,value
Oc1cc(CNC(=S)/C=C/c2ccc(O)c(O)c2Br)cc(O)c1O [Compound 4],"Tumor response / tumor progression (tumor volume, FIG. 1)",no response

# From patent publication US20240067604A1, “COMBINATIONS OF IRS/STAT3 DUAL MODULATORS AND ANTI PD-1/PD-L1 ANTIBODIES FOR TREATING CANCER” (TYRNOVO LTD., priority 2017, published 2024)
